Experiments:
Format in all cases: in vivo
Parameters in all cases: key: 0 is no effect; 10 is complete control
[1] = system: bedstraw (Galium aparine); test: Test B pre-/postemergence
From the text: (§1) Seeds of bedstraw (Galium aparine), blackgrass (Alopecurus myosuroides), broadleaf signalgrass (Brachiaria decumbens), cocklebur (Xanthium strumarium), corn (Zea mays), crabgrass (Digitaria sanguinalis), giant foxtail (Setaria faberii), lambsquarters (Chenopodium album), momingglory (Ipomoea hederacea), pigweed (Amaranthus retroflexus), rape (Brassica napus), soybean (Glycine max), sugar beet (Beta vulgaris), velvetleaf (Abutilon theophrasti), wheat (Triticum aestivum), wild oat (Avena fatua) and purple nutsedge (Cyperus rotundus) tubers were planted and treated preemergence with test chemicals formulated in a non-phytotoxic solvent mixture which included a surfactant.
(§2) At the same time, these crop and weed species were also treated with postemergence applications of test chemicals formulated in the same manner. Plants ranged in height from 2 to 18 cm (1- to 4-leaf stage) for postemergence treatments. Plant species in the flood test consisted of rice (Oryza sativa), smallflower flatsedge (Cyperus difformis), duck salad (Heteranthera limosa) and bamyardgrass (Echinochloa crus-galli) grown to the 2-leaf stage for testing. Treated plants and controls were maintained in a greenhouse for twelve to sixteen days, after which all species were compared to controls and visually evaluated. Plant response ratings, summarized in Table B, are based on a scale of 0 to 10 where 0 is no effect and 10 is complete control. A dash (−) response means no test result.

[2] = system: blackgrass (Alopecurus myosuroides); test: Test B pre-/postemergence
From the text: as §1, §2

[3] = system: broadleaf signalgrass (Brachiaria decumbens); test: Test B pre-/postemergence
From the text: as §1, §2

[4] = system: cocklebur (Xanthium strumarium); test: Test B pre-/postemergence
From the text: as §1, §2

[5] = system: corn (Zea mays); test: Test B pre-/postemergence
From the text: as §1, §2

[6] = system: crabgrass (Digitaria sanguinalis); test: Test B pre-/postemergence
From the text: as §1, §2

[7] = system: giant foxtail (Setaria faberii); test: Test B pre-/postemergence
From the text: as §1, §2

[8] = system: momingglory (Ipomoea hederacea); test: Test B pre-/postemergence
From the text: as §1, §2

[9] = system: pigweed (Amaranthus retroflexus); test: Test B pre-/postemergence
From the text: as §1, §2

[10] = system: purple nutsedge (Cyperus rotundus); test: Test B pre-/postemergence
From the text: as §1, §2

[11] = system: rape (Brassica napus); test: Test B pre-/postemergence
From the text: as §1, §2

[12] = system: soybean (Glycine max); test: Test B pre-/postemergence
From the text: as §1, §2

[13] = system: sugar beet (Beta vulgaris); test: Test B pre-/postemergence
From the text: as §1, §2

[14] = system: velvetleaf (Abutilon theophrasti); test: Test B pre-/postemergence
From the text: as §1, §2

[15] = system: wheat (Triticum aestivum); test: Test B pre-/postemergence
From the text: as §1, §2

[16] = system: wild oat (Avena fatua); test: Test B pre-/postemergence
From the text: as §1, §2

[17] = system: bamyardgrass (Echinochloa crus-galli); test: Test B flood test
Outline: (§3)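 Read-out is a visual response score from 0 (no effect) to 10 (complete control), assigned by comparison with untreated controls. Treatment was applied at the 2-leaf stage, and plants stayed in the greenhouse for twelve to sixteen days before scoring.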

[18] = system: duck salad (Heteranthera limosa); test: Test B flood test
Outline: as §3

[19] = system: rice (Oryza sativa); test: Test B flood test
Outline: as §3

[20] = system: smallflower flatsedge (Cyperus difformis); test: Test B flood test
Outline: as §3

[21] = Rate 62 g/ha, Postemergence (flood test)
[22] = Rate 125 g/ha, Postemergence, flood test
[23] = Rate 250 g/ha, Postemergence (flood test species)

SMILES: Cc1cnc(-c2cccc(C(F)(F)F)c2)nc1Cc1cccc(C(F)(F)F)c1 [Compound 24]
- Plant response rating, Bedstraw ([1]; Rate 62 g/ha, Postemergence): 4
- Bedstraw plant response rating ([1]; Rate 62 g/ha, Preemergence): 0
- Plant response rating, Bedstraw ([1]; Rate 125 g/ha, Postemergence): 10
- Bedstraw plant response rating ([1]; Rate 125 g/ha, Preemergence): 1
- Plant response rating, Bedstraw ([1]; Rate 250 g/ha, Postemergence): 10
- Plant response rating, Bedstraw ([1]; Rate 250 g/ha, Preemergence): 1
- Plant response rating, Blackgrass ([2]; Rate 62 g/ha, Postemergence): 2
- Blackgrass plant response rating ([2]; Rate 62 g/ha, Preemergence): 0
- Plant response rating, Blackgrass ([2]; Rate 125 g/ha, Postemergence): 3
- Blackgrass plant response rating ([2]; Rate 125 g/ha, Preemergence): 2
- Plant response rating, Blackgrass ([2]; Rate 250 g/ha, Postemergence): 4
- Plant response rating, Blackgrass ([2]; Rate 250 g/ha, Preemergence): 3
- Plant response rating, B. signalgrass ([3]; Rate 62 g/ha, Postemergence): 2
- B. signalgrass plant response rating ([3]; Rate 62 g/ha, Preemergence): 2
- Plant response rating, B. signalgrass ([3]; Rate 125 g/ha, Postemergence): 2
- B. signalgrass plant response rating ([3]; Rate 125 g/ha, Preemergence): 3
- Plant response rating, B. signalgrass ([3]; Rate 250 g/ha, Postemergence): 3
- Plant response rating, B. signalgrass ([3]; Rate 250 g/ha, Preemergence): 6
- Plant response rating, Cocklebur ([4]; Rate 62 g/ha, Postemergence): 9
- Cocklebur plant response rating ([4]; Rate 62 g/ha, Preemergence): 0
- Plant response rating, Cocklebur ([4]; Rate 125 g/ha, Postemergence): 9
- Cocklebur plant response rating ([4]; Rate 125 g/ha, Preemergence): 0
- Plant response rating, Cocklebur ([4]; Rate 250 g/ha, Postemergence): 10
- Plant response rating, Cocklebur ([4]; Rate 250 g/ha, Preemergence): 0
- Plant response rating, Corn ([5]; Rate 62 g/ha, Postemergence): 1
- Corn plant response rating ([5]; Rate 62 g/ha, Preemergence): 0
- Plant response rating, Corn ([5]; Rate 125 g/ha, Postemergence): 1
- Corn plant response rating ([5]; Rate 125 g/ha, Preemergence): 0
- Plant response rating, Corn ([5]; Rate 250 g/ha, Postemergence): 1
- Plant response rating, Corn ([5]; Rate 250 g/ha, Preemergence): 0
- Plant response rating, Crabgrass ([6]; Rate 62 g/ha, Postemergence): 8
- Crabgrass plant response rating ([6]; Rate 62 g/ha, Preemergence): 1
- Plant response rating, Crabgrass ([6]; Rate 125 g/ha, Postemergence): 8
- Crabgrass plant response rating ([6]; Rate 125 g/ha, Preemergence): 3
- Plant response rating, Crabgrass ([6]; Rate 250 g/ha, Postemergence): 8
- Plant response rating, Crabgrass ([6]; Rate 250 g/ha, Preemergence): 1
- Plant response rating, Giant foxtail ([7]; Rate 62 g/ha, Postemergence): 2
- Giant foxtail plant response rating ([7]; Rate 62 g/ha, Preemergence): 0
- Plant response rating, Giant foxtail ([7]; Rate 125 g/ha, Postemergence): 2
- Giant foxtail plant response rating ([7]; Rate 125 g/ha, Preemergence): 6
- Plant response rating, Giant foxtail ([7]; Rate 250 g/ha, Postemergence): 3
- Plant response rating, Giant foxtail ([7]; Rate 250 g/ha, Preemergence): 6
- Plant response rating, Morningglory ([8]; Rate 62 g/ha, Postemergence): 8
- Morningglory plant response rating ([8]; Rate 62 g/ha, Preemergence): 2
- Plant response rating, Morningglory ([8]; Rate 125 g/ha, Postemergence): 10
- Morningglory plant response rating ([8]; Rate 125 g/ha, Preemergence): 4
- Plant response rating, Morningglory ([8]; Rate 250 g/ha, Postemergence): 10
- Plant response rating, Morningglory ([8]; Rate 250 g/ha, Preemergence): 4
- Plant response rating, Redroot pigweed ([9]; Rate 62 g/ha, Postemergence): 9
- Redroot pigweed plant response rating ([9]; Rate 62 g/ha, Preemergence): 0
- Plant response rating, Redroot pigweed ([9]; Rate 125 g/ha, Postemergence): 10
- Redroot pigweed plant response rating ([9]; Rate 125 g/ha, Preemergence): 8
- Plant response rating, Redroot pigweed ([9]; Rate 250 g/ha, Postemergence): 10
- Plant response rating, Redroot pigweed ([9]; Rate 250 g/ha, Preemergence): 10
- Plant response rating, Nutsedge ([10]; Rate 62 g/ha, Postemergence): 0
- Nutsedge plant response rating ([10]; Rate 62 g/ha, Preemergence): 0
- Plant response rating, Nutsedge ([10]; Rate 125 g/ha, Postemergence): 1
- Nutsedge plant response rating ([10]; Rate 125 g/ha, Preemergence): 0
- Plant response rating, Nutsedge ([10]; Rate 250 g/ha, Preemergence): 0
- Plant response rating, Rape ([11]; Rate 62 g/ha, Postemergence): 8
- Rape plant response rating ([11]; Rate 62 g/ha, Preemergence): 0
- Plant response rating, Rape ([11]; Rate 125 g/ha, Postemergence): 10
- Rape plant response rating ([11]; Rate 125 g/ha, Preemergence): 2
- Plant response rating, Rape ([11]; Rate 250 g/ha, Postemergence): 10
- Plant response rating, Rape ([11]; Rate 250 g/ha, Preemergence): 4
- Plant response rating, Soybean ([12]; Rate 62 g/ha, Postemergence): 3
- Soybean plant response rating ([12]; Rate 62 g/ha, Preemergence): 0
- Plant response rating, Soybean ([12]; Rate 125 g/ha, Postemergence): 6
- Soybean plant response rating ([12]; Rate 125 g/ha, Preemergence): 0
- Plant response rating, Soybean ([12]; Rate 250 g/ha, Postemergence): 6
- Plant response rating, Soybean ([12]; Rate 250 g/ha, Preemergence): 0
- Plant response rating, Sugarbeets ([13]; Rate 62 g/ha, Postemergence): 10
- Sugarbeets plant response rating ([13]; Rate 62 g/ha, Preemergence): 2
- Plant response rating, Sugarbeets ([13]; Rate 125 g/ha, Postemergence): 10
- Sugarbeets plant response rating ([13]; Rate 125 g/ha, Preemergence): 3
- Plant response rating, Sugarbeets ([13]; Rate 250 g/ha, Postemergence): 10
- Plant response rating, Sugarbeets ([13]; Rate 250 g/ha, Preemergence): 9
- Plant response rating, Velvetleaf ([14]; Rate 62 g/ha, Postemergence): 2
- Velvetleaf plant response rating ([14]; Rate 62 g/ha, Preemergence): 0
- Plant response rating, Velvetleaf ([14]; Rate 125 g/ha, Postemergence): 6
- Velvetleaf plant response rating ([14]; Rate 125 g/ha, Preemergence): 1
- Plant response rating, Velvetleaf ([14]; Rate 250 g/ha, Postemergence): 7
- Plant response rating, Velvetleaf ([14]; Rate 250 g/ha, Preemergence): 2
- Plant response rating, Wheat ([15]; Rate 62 g/ha, Postemergence): 2
- Wheat plant response rating ([15]; Rate 62 g/ha, Preemergence): 0
- Plant response rating, Wheat ([15]; Rate 125 g/ha, Postemergence): 2
- Wheat plant response rating ([15]; Rate 125 g/ha, Preemergence): 0
- Plant response rating, Wheat ([15]; Rate 250 g/ha, Postemergence): 3
- Plant response rating, Wheat ([15]; Rate 250 g/ha, Preemergence): 0
- Plant response rating, Wild oats ([16]; Rate 62 g/ha, Postemergence): 2
- Wild oats plant response rating ([16]; Rate 62 g/ha, Preemergence): 0
- Plant response rating, Wild oats ([16]; Rate 125 g/ha, Postemergence): 3
- Wild oats plant response rating ([16]; Rate 125 g/ha, Preemergence): 1
- Plant response rating, Wild oats ([16]; Rate 250 g/ha, Postemergence): 4
- Plant response rating, Wild oats ([16]; Rate 250 g/ha, Preemergence): 4
- Plant response rating, Barnyardgrass [17, 21]: 2
- Plant response rating, Barnyardgrass [17, 22]: 3
- Plant response rating, Barnyardgrass [17, 23]: 4
- Plant response rating, Ducksalad [18, 21]: 0
- Plant response rating, Ducksalad [18, 22]: 2
- Plant response rating, Ducksalad [18, 23]: 3
- Plant response rating, Rice [19, 21]: 1
- Plant response rating, Rice [19, 22]: 1
- Plant response rating, Rice [19, 23]: 2
- Plant response rating, S. Flatsedge [20, 21]: 0
- Plant response rating, S. Flatsedge [20, 22]: 1
- Plant response rating, S. Flatsedge [20, 23]: 3
